Source: the NIST ThermoML archive (doi:10.1016/j.fluid.2011.07.014)

Settings: Liquid, Ebulliometric method (Recirculating still)

CC(C)=C(C)C [2,3-dimethyl-2-butene]
Settings	vapor or sublimation pressure [kPa]
336.5 K	73.5
338.2 K	77.5
340.6 K	84.2
342.65 K	90.2
344.2 K	94.7
346.24 K	101.2
347.65 K	105.3
350.1 K	113.9
353.46 K	125.5
355.35 K	133.3
357.22 K	140.4
362.8 K	164.8
365.76 K	179.5
368.05 K	190.9
370.36 K	202.8
373.18 K	218.8
375.2 K	230.4
376.5 K	238.5
379.15 K	255.1
381.62 K	271.2
383.05 K	281.3
384.7 K	292.1
386.65 K	306.8
388.2 K	318.4
